Data: PubChem BioAssay AID1918991 (Molecular Pharmacology Branch, DTP, NCI, 2023)
pIC50: −log10 of the molar value. Where “and” joins values, the source holds several entries; their conditions need not be identical. Equal entries are not always repeated.

Test system: 186277-243-T-J2-PDC complex spheroid growth
Assay: Anticancer human tumor 186277-243-T-J2-PDC patient-derived colon adenocarcinoma cell line growth inhibition [AhR]
Conditions: for viability, T/C: stronger effect = lower value
Outline: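 Agents were dosed in half-log steps down from roughly clinical Cmax, or from 10 microM where Cmax was unknown, alone and with AhR antagonists. Read-out: percent test/control growth of tumor spheroids containing HUVEC and MSC stromal cells.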

[1] = curve of first compound, second compound 0.1 µM
[2] = curve of first compound, second compound 0.316 µM
[3] = curve of first compound, second compound 1 µM
[4] = curve of first compound, second compound 3.16 µM
[5] = curve of first compound, second compound 10 µM
[6] = second compound 0.1 µM, first compound 0.0316 µM
[7] = second compound 0.1 µM, first compound 0.1 µM
[8] = second compound 0.1 µM, first compound 0.316 µM
[9] = second compound 0.1 µM, first compound 1 µM
[10] = second compound 0.1 µM, first compound 3.16 µM
[11] = second compound 0.1 µM, first compound 10 µM
[12] = second compound 0.316 µM, first compound 0.0316 µM
[13] = second compound 0.316 µM, first compound 0.1 µM
[14] = second compound 0.316 µM, first compound 0.316 µM
[15] = second compound 0.316 µM, first compound 1 µM
[16] = second compound 0.316 µM, first compound 3.16 µM
[17] = second compound 0.316 µM, first compound 10 µM
[18] = second compound 1 µM, first compound 0.0316 µM
[19] = second compound 1 µM, first compound 0.1 µM
[20] = second compound 1 µM, first compound 0.316 µM
[21] = second compound 1 µM, first compound 1 µM
[22] = second compound 1 µM, first compound 3.16 µM
[23] = second compound 1 µM, first compound 10 µM
[24] = second compound 3.16 µM, first compound 0.0316 µM
[25] = second compound 3.16 µM, first compound 0.1 µM
[26] = second compound 3.16 µM, first compound 0.316 µM
[27] = second compound 3.16 µM, first compound 1 µM
[28] = second compound 3.16 µM, first compound 3.16 µM
[29] = second compound 3.16 µM, first compound 10 µM
[30] = second compound 10 µM, first compound 0.0316 µM
[31] = second compound 10 µM, first compound 0.1 µM
[32] = second compound 10 µM, first compound 0.316 µM
[33] = second compound 10 µM, first compound 1 µM
[34] = second compound 10 µM, first compound 3.16 µM
[35] = second compound 10 µM, first compound 10 µM
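Further: spheroids exposed to compounds for seven days before the viability read.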
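Wherever viability, T/C is given: luminescent signal used as a stand-in for viable cell amount; 100% = DMSO vehicle control wells.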

CC(C)CC(NC(=O)C(Cc1ccccc1)NC(=O)c1cnccn1)B(O)O (centres undefined) + CC(CO)NC(=O)c1cc(-c2ccc(Cl)cc2)nn(-c2cnn(C)c2)c1=O
pIC50 [1]: 8.23 | pIC50 [2]: 8.23 | pIC50 [3]: 8.22 | pIC50 [4]: 8.23 | pIC50 [5]: 8.27 | viability, T/C (second compound 0.1 µM, first compound 0.000949 µM): 117% | viability, T/C (second compound 0.1 µM, first compound 0.003 µM): 120% | viability, T/C (second compound 0.1 µM, first compound 0.00949 µM): 3.22% | viability, T/C (second compound 0.1 µM, first compound 0.03 µM): 0.06% | viability, T/C (second compound 0.1 µM, first compound 0.0949 µM): 0.07% | viability, T/C (second compound 0.1 µM, first compound 0.3 µM): 0.11% | viability, T/C (second compound 0.316 µM, first compound 0.000949 µM): 121% | viability, T/C (second compound 0.316 µM, first compound 0.003 µM): 117% | viability, T/C (second compound 0.316 µM, first compound 0.00949 µM): 3.12% | viability, T/C (second compound 0.316 µM, first compound 0.03 µM): 0.03% | viability, T/C (second compound 0.316 µM, first compound 0.0949 µM): 0.05% | viability, T/C (second compound 0.316 µM, first compound 0.3 µM): 0.11% | viability, T/C (second compound 1 µM, first compound 0.000949 µM): 110% | viability, T/C (second compound 1 µM, first compound 0.003 µM): 132% | viability, T/C (second compound 1 µM, first compound 0.00949 µM): 4.62% | viability, T/C (second compound 1 µM, first compound 0.03 µM): 0.06% | viability, T/C (second compound 1 µM, first compound 0.0949 µM): 0.04% | viability, T/C (second compound 1 µM, first compound 0.3 µM): 0.11% | viability, T/C (second compound 3.16 µM, first compound 0.000949 µM): 114% | viability, T/C (second compound 3.16 µM, first compound 0.003 µM): 118% | viability, T/C (second compound 3.16 µM, first compound 0.00949 µM): 2.71% | viability, T/C (second compound 3.16 µM, first compound 0.03 µM): 0.06% | viability, T/C (second compound 3.16 µM, first compound 0.0949 µM): 0.05% | viability, T/C (second compound 3.16 µM, first compound 0.3 µM): 0.12% | viability, T/C (second compound 10 µM, first compound 0.000949 µM): 96.3% | viability, T/C (second compound 10 µM, first compound 0.003 µM): 100% | viability, T/C (second compound 10 µM, first compound 0.00949 µM): 2.68% | viability, T/C (second compound 10 µM, first compound 0.03 µM): 0.15% | viability, T/C (second compound 10 µM, first compound 0.0949 µM): 0.15% | viability, T/C (second compound 10 µM, first compound 0.3 µM): 0.23%

Nc1ccn(C2OC(CO)C(O)C2(F)F)c(=O)n1 (centres undefined)
viability, T/C (compound 0.0316 µM): 9.07% and 4.89% and 17.2% | viability, T/C (compound 0.1 µM): 8.27% and 4.63% and 16.2% | viability, T/C (compound 0.316 µM): 8.12% and 4.79% and 17.4% | viability, T/C (compound 1 µM): 8.52% and 4.4% and 18.1% | viability, T/C (compound 3.16 µM): 9.77% and 4.35% and 19.5% | viability, T/C (compound 10 µM): 9.11% and 3.84% and 21.3% | pIC50 (curve of compound): > 7.50

CC1(C)CCC(CN2CCN(c3ccc(C(=O)NS(=O)(=O)c4ccc(NCC5CCOCC5)c([N+](=O)[O-])c4)c(Oc4cnc5[nH]ccc5c4)c3)CC2)=C(c2ccc(Cl)cc2)C1
viability, T/C (compound 0.0316 µM): 97.4% and 103% and 99.8% | viability, T/C (compound 0.1 µM): 99.3% and 105% and 95.2% | viability, T/C (compound 0.316 µM): 93.9% and 119% and 92.1% | viability, T/C (compound 1 µM): 98.4% and 99.1% and 101% | viability, T/C (compound 3.16 µM): 85.5% and 109% and 84.2% | pIC50 (curve of compound): < 5.00 and 5.12 and 5.27

Nc1ccccc1NC(=O)c1ccc(CNC(=O)OCc2cccnc2)cc1 + Cc1ccccc1N=Nc1ccc(NC(=O)c2ccnn2C)c(C)c1
pIC50 [1]: 5.23 | pIC50 [2]: 5.27 | pIC50 [3]: 5.25 | pIC50 [4]: 5.29 | pIC50 [5]: 5.39 | viability, T/C [6]: 97.5% | viability, T/C [7]: 90% | viability, T/C [8]: 95.1% | viability, T/C [9]: 105% | viability, T/C [10]: 88.3% | viability, T/C [11]: 16.5% | viability, T/C [12]: 106% | viability, T/C [13]: 95.9% | viability, T/C [14]: 96.7% | viability, T/C [15]: 94.4% | viability, T/C [16]: 79% | viability, T/C [17]: 16.2% | viability, T/C [18]: 102% | viability, T/C [19]: 96.7% | viability, T/C [20]: 108% | viability, T/C [21]: 91.4% | viability, T/C [22]: 85.4% | viability, T/C [23]: 15% | viability, T/C [24]: 93.9% | viability, T/C [25]: 97.7% | viability, T/C [26]: 84.8% | viability, T/C [27]: 96.8% | viability, T/C [28]: 75.9% | viability, T/C [29]: 13.2% | viability, T/C [30]: 82.8% | viability, T/C [31]: 94.2% | viability, T/C [32]: 96.5% | viability, T/C [33]: 97.4% | viability, T/C [34]: 61.2% | viability, T/C [35]: 12.6%

CC1COCCN1c1cc(C2(S(C)(=N)=O)CC2)nc(-c2ccnc3[nH]ccc23)n1 (centres undefined) + Cc1cncc(-c2nc(NCCc3c[nH]c4ccccc34)c3ncn(C(C)C)c3n2)c1
pIC50 [1]: 5.39 | pIC50 [2]: 5.40 | pIC50 [3]: 5.43 | pIC50 [4]: 5.54 | pIC50 [5]: 5.89 | viability, T/C [6]: 85.5% | viability, T/C [7]: 119% | viability, T/C [8]: 91.6% | viability, T/C [9]: 99.5% | viability, T/C [10]: 62% | viability, T/C [11]: 6.76% | viability, T/C [12]: 96.8% | viability, T/C [13]: 97.2% | viability, T/C [14]: 87.3% | viability, T/C [15]: 106% | viability, T/C [16]: 60.9% | viability, T/C [17]: 7.2% | viability, T/C [18]: 95.4% | viability, T/C [19]: 106% | viability, T/C [20]: 97.3% | viability, T/C [21]: 106% | viability, T/C [22]: 57.1% | viability, T/C [23]: 7.29% | viability, T/C [24]: 105% | viability, T/C [25]: 105% | viability, T/C [26]: 102% | viability, T/C [27]: 105% | viability, T/C [28]: 45.5% | viability, T/C [29]: 8.1% | viability, T/C [30]: 79.2% | viability, T/C [31]: 79% | viability, T/C [32]: 70.1% | viability, T/C [33]: 60.6% | viability, T/C [34]: 18.6% | viability, T/C [35]: 5.52%

CC[C@@]1(O)C(=O)OCc2c1cc1n(c2=O)Cc2cc3c(CN(C)C)c(O)ccc3nc2-1 + Cc1cncc(-c2nc(NCCc3c[nH]c4ccccc34)c3ncn(C(C)C)c3n2)c1
pIC50 [1]: < 7.00 | pIC50 [2]: < 7.00 | pIC50 [3]: < 7.00 | pIC50 [4]: < 7.00 | pIC50 [5]: 8.88 | viability, T/C (second compound 0.1 µM, first compound 0.000316 µM): 98.8% | viability, T/C (second compound 0.1 µM, first compound 0.001 µM): 96.3% | viability, T/C (second compound 0.1 µM, first compound 0.00316 µM): 118% | viability, T/C (second compound 0.1 µM, first compound 0.01 µM): 112% | viability, T/C [6]: 92.6% | viability, T/C [7]: 62% | viability, T/C (second compound 0.316 µM, first compound 0.000316 µM): 107% | viability, T/C (second compound 0.316 µM, first compound 0.001 µM): 101% | viability, T/C (second compound 0.316 µM, first compound 0.00316 µM): 104% | viability, T/C (second compound 0.316 µM, first compound 0.01 µM): 135% | viability, T/C [12]: 86.2% | viability, T/C [13]: 64.8% | viability, T/C (second compound 1 µM, first compound 0.000316 µM): 99.6% | viability, T/C (second compound 1 µM, first compound 0.001 µM): 108% | viability, T/C (second compound 1 µM, first compound 0.00316 µM): 125% | viability, T/C (second compound 1 µM, first compound 0.01 µM): 140% | viability, T/C [18]: 85.2% | viability, T/C [19]: 69.4% | viability, T/C (second compound 3.16 µM, first compound 0.000316 µM): 118% | viability, T/C (second compound 3.16 µM, first compound 0.001 µM): 109% | viability, T/C (second compound 3.16 µM, first compound 0.00316 µM): 145% | viability, T/C (second compound 3.16 µM, first compound 0.01 µM): 135% | viability, T/C [24]: 87.4% | viability, T/C [25]: 68.9% | viability, T/C (second compound 10 µM, first compound 0.000316 µM): 49.5% | viability, T/C (second compound 10 µM, first compound 0.001 µM): 57.9% | viability, T/C (second compound 10 µM, first compound 0.00316 µM): 38.7% | viability, T/C (second compound 10 µM, first compound 0.01 µM): 28.6% | viability, T/C [30]: 31% | viability, T/C [31]: 39%

Cc1cncc(-c2nc(NCCc3c[nH]c4ccccc34)c3ncn(C(C)C)c3n2)c1
viability, T/C (compound 0.316 µM): 97.7% [middle of 20 runs]
